Source: patent US20100256107A1, “PREPARATION COMPOSITION” (Dainippon Sumitomo Pharma Co., Ltd., priority 2007, published 2010)

Experiments:
[1] = Stability in an aqueous solution formulation containing sodium carbonate (HPLC); assay type: physicochemical
Method: Multiple vials were prepared, and Compound A and sodium carbonate in amounts indicated in Table 9 were weighed and put in each vial. A physiological saline (100 ml) was added to each vial, amounts Compound A and its degradation, Compounds B and C were measured just after dissolving and after preserving for 6 hours at 25° C.
HPLC was Measured Under the Same Conditions as Test Example 1.
The numbers described in columns of “just after dissolution” and “after preservation for 6 hours at 25° C.” on Table 10 show area % per total peaks which appear until 55 minutes under the above HPLC conditions.

[2] = Control of coloration in an aqueous solution formulation containing sodium carbonate (absorbance 380 nm); assay type: physicochemical; settings: for change in absorbance, just after dissolution / change in absorbance, preservation time 1 hr / change in absorbance, preservation time 2 hr / change in absorbance, preservation time 3 hr / change in absorbance, preservation time 4 hr / change in absorbance, preservation time 5 hr / change in absorbance, preservation time 6 hr: 25° C., 380 nm
Method: Multiple vials were prepared, and sodium carbonate, Compound A and imipenem in amounts indicated in Table 14 were weighed, respectively and each mixture was put in each vial. A physiological saline (100 ml) was added to each vial to be dissolved. Coloration (change of color) just after dissolution and when the solution was preserved at one hour intervals for 6 hours at 25° C. were measured by absorbency on Compound A and imipenem.
• Condition of measurement by spectrophotometer • cell: quartz 12.5 mm×12.5 mm×45 mm, capacity 3.5 ml • wavelength: 380 nm • measurement temperature: 25° C. • instrument: UV-2200A (Shimadzu)
The numbers described in columns of “just after dissolution” and each “preservation time” on Table 15 show values of change in absorbance just after dissolution when measured under the above conditions.

[3] = Comp. A 0.5 g/vial + sodium carbonate 0.0 mg/vial in physiological saline 100 ml
[4] = Comp. A 0.5 g/vial + sodium carbonate 1.0 mg/vial in physiological saline 100 ml
[5] = Comp. A 0.5 g/vial + sodium carbonate 1.5 mg/vial in physiological saline 100 ml
[6] = Comp. A 0.5 g/vial + sodium carbonate 2.0 mg/vial in physiological saline 100 ml
[7] = Comp. A 0.5 g/vial + sodium carbonate 2.5 mg/vial in physiological saline 100 ml
[8] = Comp. A 0.5 g/vial + sodium carbonate 3.0 mg/vial in physiological saline 100 ml
[9] = Comp. A 0.5 g/vial + sodium carbonate 3.5 mg/vial in physiological saline 100 ml
[10] = Comp. A 0.5 g/vial + sodium carbonate 4.0 mg/vial in physiological saline 100 ml
[11] = Comp. A 0.5 g/vial + sodium carbonate 5.0 mg/vial in physiological saline 100 ml
[12] = 0.5 g/vial + sodium carbonate 0.0 mg/vial in physiological saline 100 ml
[13] = 0.5 g/vial + sodium carbonate 1.0 mg/vial in physiological saline 100 ml
[14] = 0.5 g/vial + sodium carbonate 1.5 mg/vial in physiological saline 100 ml
[15] = 0.5 g/vial + sodium carbonate 2.0 mg/vial in physiological saline 100 ml
[16] = 0.5 g/vial + sodium carbonate 2.5 mg/vial in physiological saline 100 ml
[17] = 0.5 g/vial + sodium carbonate 3.0 mg/vial in physiological saline 100 ml

In the case of C[C@H]1C=C(c2csc(SC3=C(C(=O)O)N4C(=O)[C@H]([C@@H](C)O)[C@H]4[C@H]3C)n2)CN1 [Compound A, (4R,5S,6S)-6-[(1R)-1-hydroxyethyl]-4-methyl-3-({4-[(5S)-5-methyl-2,5-dihydro-1H-pyrrol-3-yl]-1,3-thiazol-2-yl}sulfanyl)-7-oxo-1-azabicyclo[3.2.0]hept-2-ene-2-carboxylic acid], the “Comp. A after preservation for 6 hrs. 25° C.” value (from here on “Comp. A after preservation”) [1, 3] is reported as 96.3 area %, the “Comp. A just after dissolution” value [1, 3] is reported as 99.0 area % and the “Comp. B after preservation for 6 hrs. 25° C.” value (“Comp. B after preservation” for short) [1, 3] is reported as 2.6 area %. For the same compound, the “Comp. B just after dissolution” value [1, 3] was 0.5 area %, the “Comp. C after preservation for 6 hrs. 25° C.” value (“Comp. C after preservation” for short) [1, 3] was 0.4 area % and the “Comp. C just after dissolution” value [1, 3] was 0.0 area %. For the same compound, the “Comp. A after preservation” value [1, 4] was 96.7 area %, the “Comp. A just after dissolution” value [1, 4] was 99.0 area % and the “Comp. B after preservation” value [1, 4] was 2.6 area %. For the same compound, the “Comp. B just after dissolution” value [1, 4] was 0.6 area %, the “Comp. C after preservation” value [1, 4] was 0.2 area % and the “Comp. C just after dissolution” value [1, 4] was 0.0 area %. The “Comp. A after preservation” value [1, 5] was 96.5 area %, the “Comp. A just after dissolution” value [1, 5] was 98.9 area % and the “Comp. B after preservation” value [1, 5] was 2.8 area %. For the same compound, the “Comp. B just after dissolution” value [1, 5] was 0.5 area %, the “Comp. C after preservation” value [1, 5] was no more than 0.1 area % and the “Comp. C just after dissolution” value [1, 5] was 0.0 area %. For the same compound, the “Comp. C after preservation” value ([1]; Comp. A 0.5 g/vial + sodium carbonate 1.5 mg/vial in physiological saline 100 ml, listed as Comp. A) was 0.0 area %, the “Comp. A after preservation” value [1, 6] was 96.2 area % and the “Comp. A just after dissolution” value [1, 6] was 99.0 area %. For the same compound, the “Comp. B after preservation” value [1, 6] was 3.0 area %, the “Comp. B just after dissolution” value [1, 6] was 0.5 area % and the “Comp. C after preservation” value [1, 6] was 0.0 area %. The “Comp. C just after dissolution” value [1, 6] was 0.0 area %, the “Comp. A after preservation” value [1, 7] was 96.0 area % and the “Comp. A just after dissolution” value [1, 7] was 98.9 area %. The “Comp. B after preservation” value [1, 7] was 3.2 area %, the “Comp. B just after dissolution” value [1, 7] was 0.5 area % and the “Comp. C after preservation” value [1, 7] was 0.0 area %. For the same compound, the “Comp. C just after dissolution” value [1, 7] was 0.0 area %, the “Comp. A after preservation” value [1, 8] was 95.7 area % and the “Comp. A just after dissolution” value [1, 8] was 99.0 area %. For the same compound, the “Comp. B after preservation” value [1, 8] was 3.6 area %, the “Comp. B just after dissolution” value [1, 8] was 0.5 area % and the “Comp. C after preservation” value [1, 8] was 0.0 area %. The “Comp. C just after dissolution” value [1, 8] was 0.0 area %, the “Comp. A after preservation” value [1, 9] was 95.4 area % and the “Comp. A just after dissolution” value [1, 9] was 98.9 area %. The “Comp. B after preservation” value [1, 9] was 3.8 area %, the “Comp. B just after dissolution” value [1, 9] was 0.5 area % and the “Comp. C after preservation” value [1, 9] was 0.0 area %. For the same compound, the “Comp. C just after dissolution” value [1, 9] was 0.0 area %, the “Comp. A after preservation” value [1, 10] was 95.1 area % and the “Comp. A just after dissolution” value [1, 10] was 99.0 area %. For the same compound, the “Comp. B after preservation” value [1, 10] was 4.1 area %, the “Comp. B just after dissolution” value [1, 10] was 0.5 area % and the “Comp. C after preservation” value [1, 10] was 0.0 area %. The “Comp. C just after dissolution” value [1, 10] was 0.0 area %, the “Comp. A after preservation” value [1, 11] was 94.8 area % and the “Comp. A just after dissolution” value [1, 11] was 98.9 area %. For the same compound, the “Comp. B after preservation” value [1, 11] was 4.5 area %, the “Comp. B just after dissolution” value [1, 11] was 0.6 area % and the “Comp. C after preservation” value [1, 11] was 0.0 area %. The “Comp. C just after dissolution” value [1, 11] was 0.0 area %, the “reduction of amount of Compound A” value ([1]; sodium carbonate increased to 5 mg from 2 mg per Compound A 500 mg, 6 hours at 25° C.) was 1.4% and the “coloration by the visual inspection compared with a solution just after dissolution” value ([2]; 1.5 mg additive per 500 mg (printed sodium bicarbonate; Table 15: sodium carbonate), 6 hours at 25° C.) was “coloration was not observed by the visual inspection”. For the same compound, the “change in absorbance, just after dissolution” value (from here on “change in absorbance, just”) [2, 12] was 0.00 Abs, the “change in absorbance, preservation time 1 hr” value [2, 12] was 0.01 Abs and the “change in absorbance, preservation time 2 hr” value [2, 12] was 0.03 Abs. The “change in absorbance, preservation time 3 hr” value [2, 12] was 0.05 Abs, the “change in absorbance, preservation time 4 hr” value [2, 12] was 0.07 Abs and the “change in absorbance, preservation time 5 hr” value [2, 12] was 0.11 Abs. The “change in absorbance, preservation time 6 hr” value [2, 12] was 0.13 Abs, the “change in absorbance, just” value [2, 13] was 0.00 Abs and the “change in absorbance, preservation time 1 hr” value [2, 13] was 0.00 Abs. For the same compound, the “change in absorbance, preservation time 2 hr” value [2, 13] was 0.00 Abs, the “change in absorbance, preservation time 3 hr” value [2, 13] was 0.01 Abs and the “change in absorbance, preservation time 4 hr” value [2, 13] was 0.02 Abs. The “change in absorbance, preservation time 5 hr” value [2, 13] was 0.03 Abs, the “change in absorbance, preservation time 6 hr” value [2, 13] was 0.04 Abs and the “change in absorbance, just” value [2, 14] was 0.00 Abs. For the same compound, the “change in absorbance, preservation time 1 hr” value [2, 14] was 0.00 Abs, the “change in absorbance, preservation time 2 hr” value [2, 14] was 0.00 Abs and the “change in absorbance, preservation time 3 hr” value [2, 14] was 0.00 Abs. The “change in absorbance, preservation time 4 hr” value [2, 14] was 0.00 Abs, the “change in absorbance, preservation time 5 hr” value [2, 14] was 0.01 Abs and the “change in absorbance, preservation time 6 hr” value [2, 14] was 0.02 Abs. For the same compound, the “change in absorbance, just” value [2, 15] was 0.00 Abs, the “change in absorbance, preservation time 1 hr” value [2, 15] was 0.00 Abs and the “change in absorbance, preservation time 2 hr” value [2, 15] was 0.00 Abs. For the same compound, the “change in absorbance, preservation time 3 hr” value [2, 15] was 0.00 Abs, the “change in absorbance, preservation time 4 hr” value [2, 15] was 0.00 Abs and the “change in absorbance, preservation time 5 hr” value [2, 15] was 0.00 Abs. The “change in absorbance, preservation time 6 hr” value [2, 15] was 0.01 Abs, the “change in absorbance, just” value [2, 16] was 0.00 Abs and the “change in absorbance, preservation time 1 hr” value [2, 16] was 0.00 Abs. For the same compound, the “change in absorbance, preservation time 2 hr” value [2, 16] was 0.00 Abs, the “change in absorbance, preservation time 3 hr” value [2, 16] was 0.00 Abs and the “change in absorbance, preservation time 4 hr” value [2, 16] was 0.00 Abs. For the same compound, the “change in absorbance, preservation time 5 hr” value [2, 16] was 0.00 Abs, the “change in absorbance, preservation time 6 hr” value [2, 16] was 0.00 Abs and the “change in absorbance, just” value [2, 17] was 0.00 Abs. The “change in absorbance, preservation time 1 hr” value [2, 17] was 0.00 Abs, the “change in absorbance, preservation time 2 hr” value [2, 17] was 0.00 Abs and the “change in absorbance, preservation time 3 hr” value [2, 17] was 0.00 Abs. For the same compound, the “change in absorbance, preservation time 4 hr” value [2, 17] was 0.00 Abs, the “change in absorbance, preservation time 5 hr” value [2, 17] was 0.00 Abs and the “change in absorbance, preservation time 6 hr” value [2, 17] was 0.00 Abs. The “suppression of coloration of the solution” value ([2]; at least 1.5 mg (0.003 part by weight) of sodium carbonate per 500 mg) was “observed”.
